From patent US20080318892A1, “METHODS AND FORMULATIONS FOR PROTECTING CELLS, AND FOR TREATING DISEASES AND CONDITIONS BY OPTIMIZING THE INTRACELLULAR CONCENTRATION OF NAD” (priority 2007, published 2008)

How the values were obtained:
SIRT1 = assay: Western blot of SIRT1 protein expression in SMCs; format: cell-based, human; conditions: PBEF overexpression; p=0.02
Protocol: Western Blot and Immunoprecipitation Analysis. Protein expression was assessed by Western blot analysis with chemiluminescence detection, as previously described (Rocnik, 2002). PBEF was detected using a rabbit polyclonal anti-human PBEF/Pre-B-cell colony enhancing factor antibody (Bethyl Laboratories, Montgomery, Tex.). SIRT1 was detected using a rabbit polyclonal anti-SIRT1 antibody (Abcam, Cambridge, Mass.) and p53 and α-tubulin were detected with monoclonal antibodies (CO-1, Santa Cruz, Calif. and Clone B-5-1-1, Sigma, Oakville, ON, respectively). Cytoplasmic p53 was similarly assessed following cell fractionation (NucBuster, Novagen Minneapolis, Minn.). Identification of p53 that underwent NAD^+-dependent removal of an acetyl group on residue K382 was determined by pretreating SMCs for 2 h with 5 μM trichostatin A (TSA), immunoprecipitating p53 from the cell lysate with a goat polyclonal antibody (R&D Systems, Minneapolis, Minn.), and immunoblotting using a rabbit polyclonal anti-acetylated p53 (K382) antibody (American Proteomics, Carlsbad, Calif.) and HRP-labelled donkey anti-rabbit IgG antibody (Amersham, Piscataway, N.J.).
Western Blot Analysis. Protein expression was assessed by Western blot analysis of confluent cultured SMCs, as previously described (Rocnik et al., 2002). […] Signal was detected by chemiluminescence (Pierce, Rockford, Ill., USA).

HDAC = assay: Histone deacetylase (HDAC) assay in SMC lysates with [3H]-acetylated histone H4 peptide; format: biochemical, human; conditions: HITC6-PBEF SMC lysates, vehicle
Protocol: HITC6 SMC's were stably transduced with pQXCIP-PURO or pQXCIP-PBEF-PURO and HDAC activity determined in cell lysates (25 μg of protein), using [^3H]histone H4 peptide as the substrate. The reactions were quenched by acid hydrolysis and catalytically released [^3H]-acetate was extracted in ethyl acetate.
Histone Deacetylase (HDAC) Assays were employed. Histone H4 peptide (Upstate) was labeled with [^3H]-acetyl Coenzyme A (ICN) using PCAF histone acetylase. Cell lysates were harvested using Passive Lysis Buffer (Promega) and 25 μg of protein was incubated at 37° C. for 6 hours with 50,000 cpm of [^3H]-acetyl histone and 1 mM PMSF in HDAC Assay Buffer (Upstate). Released [^3H]-acetate was extracted with ethyl acetate (31) and counted on a Beckman LS3801 scintillation counter.

HITB5 SMC's = assay: DNA synthesis ([3H]thymidine incorporation); format: cell-based, human; conditions: PBEF-overexpressing HITB5 SMCs
Protocol: Cell Proliferation, DNA Synthesis, and Apoptosis were also evaluated. To assess SMC proliferation, cells were plated at a density of 3000 cells per cm^2 and cultured in M199 containing 5% FBS. Triplicate wells were harvested at the designated times and counted using a hemacytometer. To quantify DNA synthesis, cells in log-phase growth were incubated for 12 hours with [^3H]thymidine (10 μCi/mL) and TCA-precipitable counts determined as described (5). Thymidine incorporation was expressed relative to DNA content, quantified by spectrofluorimetry of an aliquot of cell lysate incubated with 500 μg/ml Hoechst 33258. Apoptosis was assessed in SMCs seeded on glass coverslips by in situ end-labeling of DNA fragments using terminal deoxynucleotide transferase and fluorescein 12-dUTP (Promega) (5). Cells were fixed with 4% paraformaldehyde and counterstained with Hoechst 33258.

HITC6 SMCs = assay: Replicative lifespan (cumulative population doublings) of HITC6 SMCs; format: cell-based, human
Protocol: (§1) To quantify replication, cells were plated at 4500 cells/cm^2 and growth medium with 10% FBS was changed every two days until cells reached 90-95% confluence. Harvested cells were counted from triplicate plates and the number of population doublings was calculated based on: [log10(number of cells harvested)−log10(number of cells seeded)]/[…] (Fukuhara, 2005). Population growth curves were compared using both nonlinear regression and two-way analysis of variance.
Cell Culture. Experiments were performed using primary human SMCs and the HITC6 clonal SMC line, both derived from segments of human internal thoracic artery (Li et al., 1999; Li et al., 2001). SMCs were maintained at 37° C. with 5% CO2 and cultured in Medium 199 (Invitrogen, Carlsbad, Calif., USA) supplemented with 25 mM HEPES, 10% FBS, 1% penicillin/streptomycin, and 1% L-glutamine. Phoenix cells (distributed by ATCC, Manassas, Va., USA) were maintained at 37° C. with 5% CO2 and cultured in Dulbecco's modified Eagle's medium (Invitrogen, Carlsbad, Calif., USA). To quantify replication, cells were seeded at a density of 4500 cells/cm2 and population doublings were calculated using the following formula: […].

[1] = test system: fibroblasts derived from a subject with HGPS; assay: Replicative lifespan of HGPS fibroblasts; format: cell-based, human; conditions: HGPS fibroblasts transduced with Nampt cDNA
Protocol: Cell Culture. Experiments were performed using primary human vascular SMCs derived by outgrowth from fragments of internal thoracic artery and the HITC6 SMC clonal line, also originally generated from the human internal thoracic artery (Li, 2001). Derman fibroblasts from an individual with Hutchinson-Gilford Progeria Syndrome (HGPS) were obtained from Coreill Cell Repository.
as §1

Substance: PBEF: 52-55 kD protein, rate-limiting enzyme for NAD+ biosynthesis from nicotinamide; tested by retroviral cDNA overexpression in cells
- abundance of SIRT1 protein (SIRT1): 1.3±0.3 fold
- total HDAC activity vs HITC6-Vector SMC's (HDAC): significantly greater
- thymidine incorporation vs control cells (HITB5 SMC's): no detectable difference
- additional population doublings (HITC6 SMCs; HITC6 SMCs overexpressing Nampt): 6.3±0.3 population doublings
- extension of lifespan (HITC6 SMCs; HITC6 SMCs overexpressing Nampt, p=0.003): 71±7%
- additional population doublings conferred by Nampt (HITC6 SMCs; double-transduction experiment, Nampt without SIRT1 H363Y): 5.4±0.5 population doublings
- cell lifespan extension [1]: also seen
